Literature values, collected in patent US20250043462A1, “INSECT REPELLENT POLYETHYLENE TEREPHTHALATE FIBERS” (The Government of the United States of America, as …, priority 2023, published 2025).

Conditions: commercially available repellent sprays

Structure (SMILES): CCN(CC)C(=O)c1cccc(C)c1 [DEET, N,N,-diethyl-meta-toluamide]
- duration of repellency before reapplication: up to 10 h

Structure (SMILES): CCC(C)OC(=O)N1CCCCC1CCO (centres unmarked) [Picaridin, 1-(1-methylpropoxycarbonyl)-2-(2-hydroxyethyl)piperidine]
- duration of repellency before reapplication: ≤ 8 h
